Structures are written as SMILES.

In data set [1] the test system is Human breast adenocarcinoma cell line (MDA-MB-231). Nature of the data set: Cytotoxicity test / growth inhibition, MDA-MB-231. The note with it: MDA-MB-231, 48 hours, cell counting. It counts as cell-based. As to the method: (§1) Cells were purchased from American Type Culture Collection (ATCC, Manassas, Va., USA). The LNCaP (ATCC® CRL-1740™), A549 (ATCC® CCL-185™), MDA-MB-231 (ATCC® CRM-HTB-26™), 22Rv1 (ATCC® CRL-2505™), HCT-116 (ATCC® CCL-247™) and PC3 (ATCC® CRL-1435™) cells were maintained in Roswell Park Memorial Institute 1640 medium (RPMI; Euroclone, ECB9006L) supplemented with 10% fetal bovine serum (Euroclone; ECS0180L), 2 mM L-glutamine, 100 units/mL penicillin and […] streptomycin at 37° C. in an atmosphere of 5% CO2/air. DU145 (ATCC® HTB-81™), and DAOY (ATCC® HTB-186™) cells were maintained in Eagle's minimal essential medium (EMEM; Euro-clone, ECM0445L) supplemented with 10% fetal bovine serum (Euroclone; ECS0180L), 2 mM L-glutamine, 100 units/ml penicillin and […] streptomycin at 37° C. in an atmosphere of 5% CO2/air. SH-SY5Y (ATCC® CRL-2266™), DBRTG (ATCC® CRL-2020™), HeLa (ATCC® CCL-2™), HN6 cells (kindly provided by Dr Silvio Gutkind, UCSD Medical Center, Moores Cancer Center USA, Chen J. J et al, Oncotarget 2013, 4, 206-217)), U2OS (ATCC® HTB-96™), RD18 cells (kindly provided by Dr P. Boccuni Memorial Sloan-Kettering Cancer Center, New York, USA Vella S. et al. Clin Epigenetics. 2015 6; 7-82), cells were maintained in Dulbecco's modified Eagle's medium (DMEM; Euroclone, ECB7501L) supplemented with 10% fetal bovine serum (Euroclone; ECS0180L), 2 mM L-glutamine, 100 units/ml penicillin and 100 mg/mL streptomycin at 37° C. in an atmosphere of 5% CO2/air.
(§2) Cell lines were seeded at appropriate densities in 2 mL growth medium in 6-wells culture plates 24 hours before the treatment with the inhibitor compounds. After 24 h the culture medium was removed and fresh medium containing increasing concentrations of chemical compounds was added to cells. The fixed final concentrations were: 0.1 μM, 1 μM, 10 μM, 100 μM. DMSO was the vehicle used for dilution of the compounds and its final concentration on cells was less than 0.2%. Medium-only containing wells were included as controls. Cells were incubated 48 hours with drugs and, then, cell viability was evaluated.
(§3) Cells were detached from each well of the 6-wells plates with 300 μL of Trypsin and suspended in culture medium to a final volume of 1 mL. Cell viability was then assessed through cell counting. Cells were diluted in 1:50 ratio of an isotonic buffered diluent, Isoton (Backman Coulter), following the manufacturer's instructions, and counted using an automated cell counter (Z2 series Coulter Counter, Beckman Coulter). Each cell count was performed in three replicates. The values corresponding to the relative survival of cells in presence of each chemical compound at single concentrations were normalized to the untreated controls. Then, the half maximal inhibitory concentration (IC50) value, which represent the drug concentration that is required to induce a 50% growth inhibition in vitro, was calculated with GraphPad Prism 6.0 software using the best fitting sigmoid curve.

Data set [2] is described as follows: Microsomal Stability Assay (HLM). It counts as in vitro ADME. As to conditions: human liver microsomes, 37° C., 60 min, NADPH-generating system; percentage of not metabolized compound. The source says: For the quantification was used an LC-MS system consisted of a Varian apparatus (Varian Inc) including a vacuum solvent degassing unit, two pumps (212-LC), a Triple Quadrupole MSD (Mod. 320-LC) mass spectrometer with ES interface and Varian MS Workstation System Control Vers. 6.9 software. Chromatographic separation was obtained using a Pursuit C18 column (50×2.0 mm) (Varian) with 3 μm particle size and gradient elution: eluent A being ACN and eluent B consisting of water. […] The flow rate was 0.2 mL min^−1 and injection volume was 5 μL. The instrument operated in positive mode and parameters were: detector 1850 V, drying gas pressure 25.0 psi, desolvation temperature 300.0° C., nebulizing gas 40.0 psi, needle 5000 V and shield 600 V. Nitrogen was used as nebulizer gas and drying gas. Collision induced dissociation was performed using Argon as the collision gas at a pressure of 1.8 mTorr in the collision cell. Microsomal Stability Assay. […] The reaction was stopped by cooling on ice and adding 1.0 mL of acetonitrile. The reaction mixtures were then centrifuged, and the parent drug and metabolites were subsequently determined by LC-UV-MS. Chromatographic analysis was performed with an Agilent 1100 LC/MSD VL system (G1946C) (Agilent Technologies, Palo Alto, Calif.) constituted by a vacuum solvent degassing unit, a binary high-pressure gradient pump, an 1100 series UV detector, and an 1100 MSD model VL benchtop mass spectrometer.
Chromatographic separation was obtained using a Varian Polaris C18-A column (150-4.6 mm, 5 μm particle size) and gradient elution: eluent A being ACN and eluent B consisting of water. […] The flow rate was 0.8 mL min^−1 and injection volume was 20 μL.
The Agilent 1100 series mass spectra detection (MSD) single-quadrupole instrument was equipped with the orthogonal spray API-ES (Agilent Technologies, Palo Alto, Calif.). Nitrogen was used as nebulizing and drying gas. The pressure of the nebulizing gas, the flow of the drying gas, the capillary voltage, the fragmentor voltage, and the vaporization temperature were set at 40 psi, 9 L/min, 3000 V, 70 V, and 350° C., respectively. UV detection was monitored at 280 nm. The LC-ESI-MS determination was performed by operating the MSD in the positive ion mode. Spectra were acquired over the scan range m/z 100-1500 using a step size of 0.1 u. The percentage of not metabolized compound was calculated by comparison with reference solutions.
For orientation: Microsomes from liver hold many membrane-bound enzymes, among them those of drug oxidation.

Data set [3] can be described thus: Parallel Artificial Membrane Permeability Assay (PAMPA), GI. It counts as in vitro ADME. As to conditions: GI (intestinal) PAMPA, value in brackets. As to the method: Parallel Artificial Membrane Permeability Assay (PAMPA). Donor solution (0.5 mM) was prepared by diluting 1 mM dimethylsulfoxide (DMSO) compound stock solution using phosphate buffer (pH 7.4, 0.025 M). Filters were coated with 5 μL of a 1% (w/v) dodecane solution of phosphatidylcholine prepared from CHCl3 solution 10% w/v, for intestinal permeability. Donor solution (150 μL) was added to each well of the filter plate. To each well of the acceptor plate were added 300 μL of solution (50% DMSO in phosphate buffer). All compounds were tested in three different plates on different days. The sandwich was incubated for 5 h at room temperature under gentle shaking. After the incubation time, the plates were separated, and samples were taken from both receiver and donor sides and analyzed using LC with UV detection at 280 nm.
LC analysis were performed with a Varian Prostar HPLC system (Varian Analytical Instruments, USA) equipped with a binary pump with a manual injection valve and model Prostar 325 UV-VIS Detector. Chromatographic separations were conducted using a Polaris C18-A column (150-4.6 mm, 5 μm particle size) at a flow rate of 0.8 mL min^−1 with a mobile phase composed of 60% ACN/40% H2O.
Permeability (Papp) for PAMPA was calculated according to the following equation, obtained from Wohnsland and Faller and Sugano et al. equation with some modification in order to obtain permeability values in cm s^−1,
where VA is the volume in the acceptor well, VD is the volume in the donor well (cm^3), A is the “effective area” of the membrane (cm^2), t is the incubation time (s) and r the ratio between drug concentration in the acceptor and equilibrium concentration of the drug in the total volume (VD+VA). Drug concentration is estimated by using the peak area integration.
Membrane retentions (%) were calculated according to the following equation: […]
where r is the ratio between drug concentration in the acceptor and equilibrium concentration, D, A, and Eq represented drug concentration in the donor, acceptor and equilibrium solution, respectively.

The subject of data set [4] is Human osteosarcoma cell line (U2OS). Put plainly: Cytotoxicity test / growth inhibition, U2OS. It counts as cell-based. The note with it: 48 hours, cell counting. As for the experimental part: as §1, §2, §3
The subject of data set [5] is Human head and neck squamous carcinoma cell line (HN6). Put plainly: Cytotoxicity test / growth inhibition, HN6. The data set is classed as cell-based. The note with it: HN6, 48 hours, cell counting. As to the method:
as §1, §2, §3

For data set [6], the system named is Human colorectal carcinoma cell line (HCT116). Put plainly: Cytotoxicity test / growth inhibition, HCT116. The data set is classed as cell-based. As to conditions: HCT-116, HCT116, 48 hours, cell counting. As for the experimental part:
as §1, with “2015 6; 7-82), cells were maintained in Dulbecco's modified Eagle's medium (DMEM; Euroclone, ECB7501L) supplemented with 10% fetal bovine serum (Euroclone; ECS0180L), 2 mM L-glutamine, 100 units/ml penicillin and 100 mg/mL streptomycin at 37° C. in an atmosphere of 5% CO2/air.” left out
(§4) Cell lines were seeded at appropriate densities in 2 mL growth medium in 6-wells culture plates 24 hours before the treatment with the inhibitor compounds. […] Cells were incubated 48 hours with drugs and, then, cell viability was evaluated.
(§5) Cells were detached from each well of the 6-wells plates with 300 μL of Trypsin and suspended in culture medium to a final volume of 1 mL. Cell viability was then assessed through cell counting. Cells were diluted in 1:50 ratio of an isotonic buffered diluent, Isoton (Backman Coulter), following the manufacturer's instructions, and counted using an automated cell counter (Z2 series Coulter Counter, Beckman Coulter). […]

Data set [7] concerns Human adenocarcinomic alveolar basal epithelial cell line (A549). Nature of the data set: Cytotoxicity test / growth inhibition, A549. As to conditions: A549, 48 hours, cell counting. It counts as cell-based. As to the method: as §1, §2, §3
The subject of data set [8] is Human Prostate cancer cell line (PC3). Nature of the data set: Cytotoxicity test / growth inhibition, PC3. The data set is classed as cell-based. As to conditions: PC3, 48 hours, cell counting. As to the method:
as §1, with “2015 6; 7-82), cells were maintained in Dulbecco's modified Eagle's medium (DMEM; Euroclone, ECB7501L) supplemented with 10% fetal bovine serum (Euroclone; ECS0180L), 2 mM L-glutamine, 100 units/ml penicillin and 100 mg/mL streptomycin at 37° C. in an atmosphere of 5% CO2/air.” left out
as §4, §5

The subject of data set [9] is Human Prostate cell line derived from brain metastasis (DU-145). Put plainly: Cytotoxicity test / growth inhibition, DU-145. It counts as cell-based. The note with it: DU-145, 48 hours, cell counting. As for the experimental part: as §1, §2
as §5, with “Coulter). Each cell count was performed in three replicates. The values corresponding to the relative survival of cells in presence of each chemical compound at single concentrations were normalized to the untreated controls.” for “Coulter).”

In data set [10] the target is T1, Human recombinant DDX3 (DDX3 wt helicase) (Homo sapiens, UniProt O00571).
T1 construct: made in house
Nature of the data set: Helicase assay (anti-enzymatic activity against the DDX3 helicase). The data set is classed as biochemical. The note with it: DDX3 helicase activity, dsRNA unwinding; n.a = Compound not active; read-out: ID50 (the source's name). As to the method:
The helicase activity of DDX3 wt was monitored by measuring the conversion of a double stranded (ds) RNA (labelled at the 5′-end of one strand with a 6-FAM fluorescent) into single stranded (ss) nucleic acid. A final concentration of 25 nM RNA substrate was used in the experiments, unless otherwise stated. Reactions were performed in 50 mM TrisHCl pH 7.5, 1 mM DTT, 0.2 mg/ml BSA, 5% glycerol and 100 μM ATP, 10 mM MgCl2 at 37° C. degrees for 10′ and stopped by adding EDTA 50 mM pH 8. Products were separated through non-denaturating 8% PAGE at 5 W for 4 hours in TBE buffer at 4° C. Substrates and products were quantified by laser scanning densitometry (Thyphoon-TRIO, GE Healthcare).
Human recombinant DDX3 was cloned, expressed and purified as described (Franca et al. Proteins 2007, 67, 1128-37).

T1 sequence (O00571 whole entry): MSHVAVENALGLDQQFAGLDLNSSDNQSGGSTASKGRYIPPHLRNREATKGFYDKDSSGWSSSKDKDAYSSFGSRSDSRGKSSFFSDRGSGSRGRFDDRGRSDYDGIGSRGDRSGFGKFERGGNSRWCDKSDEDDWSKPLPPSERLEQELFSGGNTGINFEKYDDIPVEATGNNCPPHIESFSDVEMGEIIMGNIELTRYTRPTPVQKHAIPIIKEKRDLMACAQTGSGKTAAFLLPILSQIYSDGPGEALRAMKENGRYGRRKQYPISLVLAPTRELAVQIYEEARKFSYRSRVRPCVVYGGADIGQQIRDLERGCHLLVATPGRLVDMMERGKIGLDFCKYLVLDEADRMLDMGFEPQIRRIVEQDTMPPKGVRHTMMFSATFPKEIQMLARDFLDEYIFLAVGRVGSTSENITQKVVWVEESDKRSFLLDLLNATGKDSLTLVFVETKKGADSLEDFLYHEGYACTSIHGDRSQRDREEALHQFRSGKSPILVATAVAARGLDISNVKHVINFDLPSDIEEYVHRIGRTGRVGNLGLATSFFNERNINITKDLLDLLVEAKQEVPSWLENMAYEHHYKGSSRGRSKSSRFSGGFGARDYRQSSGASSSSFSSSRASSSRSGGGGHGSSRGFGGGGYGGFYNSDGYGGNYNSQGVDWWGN

`CCCCc1cn(-c2ccc(NC(=O)Nc3ccccc3C(F)(F)F)cc2F)nn1` [Compound 81, 1-(4-(4-butyl-1H-1,2,3-triazol-1-yl)-3-fluorophenyl)-3-(2-(trifluoromethyl)phenyl)urea] showed an IC50 in [1] of 25.1 µM. In [2], the Sability % was 94%. Moreover, in data set [3], the “PAMPA GI (RM %) membrane retention” value stood at 30.4%.

With `CCCCc1nc(-c2ccc(NC(=O)Nc3ccccc3C(F)(F)F)cc2)no1` [Compound 106, 1-(4-(5-butyl-1,2,4-oxadiazol-3-yl)phenyl)-3-(2-(trifluoromethyl)phenyl)urea], the IC50 in data set [4] was 35.4 µM; in data set [5] it was 18.2 µM; in data set [6] it was 36.8 µM; in data set [7], 32.6 µM.

For the compound `CCCCc1nnc(-c2ccc(NC(=O)Nc3ccccc3C(F)(F)F)cc2)o1` [Compound 112, 1-(4-(5-butyl-1,3,4-oxadiazol-2-yl)phenyl)-3-(2-(trifluoromethyl)phenyl)urea], the IC50 stood at 33.6 µM in data set [1], 75.7 µM in [5], 38.2 µM in data set [6] and 57.1 µM in [7].

In the case of `CCCCc1nnc(-c2ccc(NC(=O)Nc3ccccc3C(F)(F)F)cc2)[nH]1` [Compound 119, 1-(4-(5-butyl-4H-1,2,4-triazol-3-yl)phenyl)-3-(2-(trifluoromethyl)phenyl)urea], the IC50 stood at 46.3 µM in data set [8], 12.9 µM in [9], 14 µM in [7] and 1 µM in data set [10].

The values above are taken from patent US11000512B2, “Use of DDX3 inhibitors as antiproliferative agents” (AZIENDA OSPEDALIERA UNIVERSITARIA SENESE, priority 2016, dated 2021).
